Tests used:
VDR = target: T1, VDR (Homo sapiens, UniProt P11473); experiment: Binding to the VDR relative to 1α,25(OH)2D3; conditions: 1α,25(OH)2D3 as reference
T1 sequence (P11473 1-427): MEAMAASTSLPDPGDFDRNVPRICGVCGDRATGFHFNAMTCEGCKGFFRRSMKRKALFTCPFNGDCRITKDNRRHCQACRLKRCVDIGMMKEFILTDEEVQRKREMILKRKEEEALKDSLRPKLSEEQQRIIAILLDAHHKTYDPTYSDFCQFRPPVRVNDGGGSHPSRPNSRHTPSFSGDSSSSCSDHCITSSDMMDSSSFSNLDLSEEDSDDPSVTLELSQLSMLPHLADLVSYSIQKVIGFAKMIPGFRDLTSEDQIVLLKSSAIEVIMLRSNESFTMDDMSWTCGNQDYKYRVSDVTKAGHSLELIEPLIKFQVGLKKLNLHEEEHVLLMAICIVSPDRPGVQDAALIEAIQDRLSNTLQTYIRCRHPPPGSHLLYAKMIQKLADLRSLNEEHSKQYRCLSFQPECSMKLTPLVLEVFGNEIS
From the text: (§1) One striking ligand-receptor structure-function relationship for 1α,25(OH)2D3 analogs relates to the chiral center at carbon 20 (see FIG. 7A) of the steroid side chain. The 20-epi analogs are 100-10,000 times more transcriptionally potent than the natural hormone 1α,25(OH)2D3, even though their affinity for the VDR is not greater. It is also known that the side chain of 20-normal versus 20-epi analogs of 1α,25(OH)2D3 is able to access different regions of three-dimensional space around the C/D ring. […] Med. Chem. Lett., 3:1799 (1998).
(§2) The problem of docking in the VDR LBD a unique analog of 1α,25(OH)2D3 that has a second side chain attached to carbon 20, such as Gemini [21-(3′-hydroxy-3-methylbutyl)-1α,25(OH)2D3], was also evaluated. Thus, Gemini has both a 20-normal and a 20-epi side chain. […] This conclusion is also consistent both with the proposal that the ligand enters the VDR LBD leading with its A-ring and with the unique trypsin sensitivity of a VDR LBD-Gemini complex.

osteocalcin promoter = experiment: Transactivation of the osteocalcin promoter; format: cell-based; conditions: more potent than 1α,25(OH)2D3
From the text: as §1
The seemingly benign structural change of the ligand from a 20-normal to 20-epi 1α,25(OH)2D3 results in a new conformational change in the VDR as assessed by trypsin sensitivity. This conformational change is believed to reflect an altered orientation of helix 12. Thus a VDR with a 20-epi ligand has an enhanced dimerization with RXR, resulting in increased transactivation of the osteocalcin promoter.
as §2

binding to the VDR relative to 1α,25(OH)2D3 (VDR): 40%
Structure (SMILES): C=C1/C(=C\C=C2/CCC[C@]3(C)[C@@H](C(CCCC(C)(C)O)CCCC(C)(C)O)CC[C@@H]23)C[C@H](O)C[C@H]1O [Gemini, 21-(3′-hydroxy-3-methylbutyl)-1α,25(OH)2D3]
potency relative to 1α,25(OH)2D3, transactivation of the osteocalcin promoter (osteocalcin promoter): 13 -fold
